According to ChEMBL document CHEMBL2413025, “Synthesis, biological activity and molecular modeling studies on 1H-benzimidazole derivatives as acetylcholinesterase inhibitors” (Bioorg Med Chem, 2013):

Columns and labels:
[1] = biological target: Acetylcholinesterase (Electrophorus electricus, UniProt O42275)
Description: Inhibition of electric eel AChE using acetylthiocholine iodide as substrate preincubated for 5 mins before substrate addition by Ellman's method

[2] = biological target: Acetylcholinesterase (Homo sapiens, UniProt P22303); assay: Inhibition of recombinant human AChE using acetylthiocholine iodide as substrate preincubated for 5 mins before substrate addition by Ellman's method
[3] = biological target: Cholinesterase (Equus caballus, UniProt P81908)
Description: Inhibition of horse serum BChE using acetylthiocholine iodide as substrate preincubated for 5 mins before substrate addition by Ellman's method

[4] = Selectivity ratio of IC50 for horse serum BChE to IC50 for electric eel AChE

Sequence of Acetylcholinesterase (Homo sapiens, UniProt P22303) (P22303 whole entry): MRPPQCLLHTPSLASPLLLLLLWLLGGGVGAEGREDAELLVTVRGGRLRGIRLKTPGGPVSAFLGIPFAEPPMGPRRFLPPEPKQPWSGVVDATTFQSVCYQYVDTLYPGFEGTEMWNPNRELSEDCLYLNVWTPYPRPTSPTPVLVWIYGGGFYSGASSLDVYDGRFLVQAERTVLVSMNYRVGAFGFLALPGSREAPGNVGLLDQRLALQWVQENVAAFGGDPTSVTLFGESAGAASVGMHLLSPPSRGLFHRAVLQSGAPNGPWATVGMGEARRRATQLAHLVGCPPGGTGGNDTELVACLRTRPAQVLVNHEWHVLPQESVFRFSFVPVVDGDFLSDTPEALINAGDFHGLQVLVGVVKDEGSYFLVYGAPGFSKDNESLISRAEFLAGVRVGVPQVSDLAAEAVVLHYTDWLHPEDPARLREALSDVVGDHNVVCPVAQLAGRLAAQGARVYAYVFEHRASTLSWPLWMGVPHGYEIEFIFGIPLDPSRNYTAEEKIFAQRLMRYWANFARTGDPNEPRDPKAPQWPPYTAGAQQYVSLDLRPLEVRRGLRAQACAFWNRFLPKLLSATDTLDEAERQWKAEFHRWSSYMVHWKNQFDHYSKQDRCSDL
Sequence of Cholinesterase (P81908 whole entry): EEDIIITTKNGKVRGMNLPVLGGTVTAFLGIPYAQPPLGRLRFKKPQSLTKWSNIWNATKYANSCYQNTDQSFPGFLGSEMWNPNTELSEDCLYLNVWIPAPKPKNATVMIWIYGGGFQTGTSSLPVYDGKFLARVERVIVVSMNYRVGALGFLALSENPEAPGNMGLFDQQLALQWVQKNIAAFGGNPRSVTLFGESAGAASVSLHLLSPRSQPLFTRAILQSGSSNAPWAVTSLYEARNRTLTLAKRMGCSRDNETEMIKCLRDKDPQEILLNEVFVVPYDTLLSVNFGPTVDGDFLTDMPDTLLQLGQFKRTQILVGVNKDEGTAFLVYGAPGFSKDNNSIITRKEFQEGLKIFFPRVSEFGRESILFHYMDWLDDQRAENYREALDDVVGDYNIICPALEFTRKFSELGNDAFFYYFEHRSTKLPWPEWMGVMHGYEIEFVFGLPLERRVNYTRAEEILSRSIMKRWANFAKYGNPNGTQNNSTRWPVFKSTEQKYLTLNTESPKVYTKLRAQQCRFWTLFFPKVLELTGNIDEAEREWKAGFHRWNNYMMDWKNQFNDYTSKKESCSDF
Sequence of Acetylcholinesterase (Electrophorus electricus, UniProt O42275) (O42275 whole entry): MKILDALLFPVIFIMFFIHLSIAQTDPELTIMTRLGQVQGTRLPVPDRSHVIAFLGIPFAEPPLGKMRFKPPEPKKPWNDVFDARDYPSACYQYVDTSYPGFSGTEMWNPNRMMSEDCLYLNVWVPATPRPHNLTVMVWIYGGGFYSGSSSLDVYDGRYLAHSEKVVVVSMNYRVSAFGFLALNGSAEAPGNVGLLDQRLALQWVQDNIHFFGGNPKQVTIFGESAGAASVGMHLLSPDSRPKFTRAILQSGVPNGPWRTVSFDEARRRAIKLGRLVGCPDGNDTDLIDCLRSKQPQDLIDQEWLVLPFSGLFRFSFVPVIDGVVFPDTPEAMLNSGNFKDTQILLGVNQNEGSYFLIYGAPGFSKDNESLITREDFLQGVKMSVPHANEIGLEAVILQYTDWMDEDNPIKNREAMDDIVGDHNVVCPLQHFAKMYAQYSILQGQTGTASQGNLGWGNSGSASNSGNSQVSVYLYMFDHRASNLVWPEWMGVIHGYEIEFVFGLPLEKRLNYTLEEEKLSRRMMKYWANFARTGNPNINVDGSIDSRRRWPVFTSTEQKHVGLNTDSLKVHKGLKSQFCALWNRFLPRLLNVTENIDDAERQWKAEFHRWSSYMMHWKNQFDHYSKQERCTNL

SMILES	IC50 [1] [µM]	IC50 [2] [µM]	IC50 [3] [µM]	Ratio IC50 [4]
CC(C)N(CCOc1ccc(-c2nc3ccc(Cl)cc3[nH]2)cc1)C(C)C	0.58	3.68	7.44	
Clc1ccc2[nH]c(-c3ccc(OCCN4CCCC4)cc3)nc2c1	3.24	1.4	3.42	1.1
Cc1ccc2[nH]c(-c3ccc(OCCN(C)C)cc3)nc2c1	5.06	12.3	> 100	
CC(C)N(CCOc1ccc(-c2nc3ccccc3[nH]2)cc1)C(C)C	1.19	23.4	4.11	3.5
Oc1ccc(-c2nc3cc(Cl)ccc3[nH]2)cc1	14.6	> 100	8.52	0.6
Cc1ccc2[nH]c(-c3ccc(OCCN4CCCCC4)cc3)nc2c1	0.84	0.39	1.37	1.6
Oc1ccc(-c2nc3ccccc3[nH]2)cc1	17.3	> 100	4.59	0.3
CCN(CC)CCOc1ccc(-c2nc3ccccc3[nH]2)cc1	15.6	> 100	5.06	0.3
CN(C)CCOc1ccc(-c2nc3ccc(Cl)cc3[nH]2)cc1	2.68	8.02	> 100	
CN(C)CCOc1ccc(-c2nc3ccccc3[nH]2)cc1	13.1	10.7	5.87	0.4
CCN(CC)CCOc1ccc(-c2nc3ccc(C)cc3[nH]2)cc1	2.34	51	6.48	
c1ccc2[nH]c(-c3ccc(OCCN4CCCC4)cc3)nc2c1	3.05	2.13	23	7.6
CC(C)N(CCOc1ccc(-c2nc3cc(Cl)ccc3[nH]2)cc1)C(C)C				12.8
c1ccc2[nH]c(-c3ccc(OCCN4CCOCC4)cc3)nc2c1	18.8	> 100	> 100	
CCN(CC)CCOc1ccc(-c2nc3cc(Cl)ccc3[nH]2)cc1	3.5	8.75	> 100	
Cc1ccc2[nH]c(-c3ccc(O)cc3)nc2c1	15.9	> 100	4.67	0.3
Cc1ccc2[nH]c(-c3ccc(OCCN4CCOCC4)cc3)nc2c1	> 100	12.9	> 100	
Cc1ccc2[nH]c(-c3ccc(OCCN4CCCC4)cc3)nc2c1	1.34	0.4	3.24	2.4
Clc1ccc2nc(-c3ccc(OCCN4CCCCC4)cc3)[nH]c2c1	0.61	0.13	> 100	
Clc1ccc2[nH]c(-c3ccc(OCCN4CCOCC4)cc3)nc2c1	11.1	9.73	> 100	
CCN(CC)CCOc1ccc(-c2nc3cc(C)ccc3[nH]2)cc1				2.8
c1ccc2[nH]c(-c3ccc(OCCN4CCCCC4)cc3)nc2c1	1.08	1.03	2.45	2.3
